# Laboratory results: patent US10251892B2, “Bicyclic heterocycles as FGFR4 inhibitors” (Incyte Corporation, priority 2015, dated 2019)
# Biological target: FGFR3 enzyme (Homo sapiens (Human), UniProt P22607)
# Assay: FGFR Enzymatic Assay (peptide phosphorylation, FRET), FGFR3
# Assay type: biochemical
# Conditions: IC50 ratio showing FGFR3 selectivity; pre-incubated for 4 hours
# Description: The inhibitor potency of the exemplified compounds was measured in an enzyme assay that measures peptide phosphorylation using FRET measurements to detect product formation. Inhibitors were serially diluted in DMSO and a volume of 0.5 μL was transferred to the wells of a 384-well plate.
# GraphPad prism3 was used to analyze the data.
# Sequence of FGFR3 enzyme (P22607 23-806): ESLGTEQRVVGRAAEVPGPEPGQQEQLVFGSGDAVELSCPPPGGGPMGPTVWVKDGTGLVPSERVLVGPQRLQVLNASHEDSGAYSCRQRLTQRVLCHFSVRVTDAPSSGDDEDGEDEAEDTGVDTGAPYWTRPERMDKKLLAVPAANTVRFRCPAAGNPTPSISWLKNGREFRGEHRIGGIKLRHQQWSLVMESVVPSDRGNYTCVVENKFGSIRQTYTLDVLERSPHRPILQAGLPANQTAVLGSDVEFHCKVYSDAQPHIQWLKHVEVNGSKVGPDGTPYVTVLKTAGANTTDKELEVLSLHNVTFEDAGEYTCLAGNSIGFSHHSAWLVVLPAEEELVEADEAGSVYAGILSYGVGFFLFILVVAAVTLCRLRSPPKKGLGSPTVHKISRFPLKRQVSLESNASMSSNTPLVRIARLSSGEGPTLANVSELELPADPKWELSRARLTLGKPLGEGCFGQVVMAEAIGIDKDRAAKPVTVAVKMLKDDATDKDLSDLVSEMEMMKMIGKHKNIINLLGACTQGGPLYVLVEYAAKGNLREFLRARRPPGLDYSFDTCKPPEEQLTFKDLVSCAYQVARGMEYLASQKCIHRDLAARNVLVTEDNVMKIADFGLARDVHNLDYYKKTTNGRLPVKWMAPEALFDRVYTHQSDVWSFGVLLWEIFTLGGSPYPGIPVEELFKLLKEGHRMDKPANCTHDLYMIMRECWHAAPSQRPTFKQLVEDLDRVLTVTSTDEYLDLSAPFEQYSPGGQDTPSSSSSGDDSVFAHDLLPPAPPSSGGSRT
FGFR1/FGFR3,FGFR4/FGFR3,SMILES
>5,–,"COc1cc(OC)c(F)c(N2Cc3cnc(-c4cn(C)nc4C)cc3C3(CC3)C2=O)c1F [Example 21, 2′-(2,6-difluoro-3,5-dimethoxyphenyl)-6′-(1,3-dimethyl-1H-pyrazol-4-yl)-1′,2′-dihydro-3′H-spiro[cyclopropane-1,4′-[2,7]naphthyridin]-3′-one]"
>5,>5,"COc1cc(OC)c(F)c(N2Cc3cnc(-c4cn(C)nc4C)cc3N(c3ccc(F)c(C#N)c3)C2=O)c1F [Example 66, 5-(3-(2,6-difluoro-3,5-dimethoxyphenyl)-7-(1,3-dimethyl-1H-pyrazol-4-yl)-2-oxo-3,4-dihydropyrido[4,3-d]pyrimidin-1(2H)-yl)-2-fluorobenzonitrile]"
>3,>5,"COc1cc(OC)c(F)c(N2Cc3cnc(-c4cn(C)nc4C)cc3N(c3ccccc3F)C2=O)c1F [Example 110, 3-(2,6-difluoro-3,5-dimethoxyphenyl)-7-(1,3-dimethyl-1H-pyrazol-4-yl)-1-(2-fluorophenyl)-3,4-dihydropyrido[4,3-d]pyrimidin-2(1H)-one]"
>3,>3,"COc1cc(OC)c(F)c(N2Cc3cnc(-c4cn(CCC5CCNCC5)nc4C)cc3C3(CC3)C2=O)c1F [Example 165, 2′-(2,6-difluoro-3,5-dimethoxyphenyl)-6′-(3-methyl-1-(2-(piperidin-4-yl)ethyl)-1H-pyrazol-4-yl)-1′H-spiro[cyclopropane-1,4′-[2,7]naphthyridin]-3′(2′H)-one]"
>5,>10,"COc1cc(OC)c(F)c(N2Cc3cnc(-c4cn(C)nc4C)cc3N(Cc3csc(C)n3)C2=O)c1F [Example 95, 3-(2,6-difluoro-3,5-dimethoxyphenyl)-7-(1,3-dimethyl-1H-pyrazol-4-yl)-1-((2-methylthiazol-4-yl)methyl)-3,4-dihydropyrido[4,3-d]pyrimidin-2(1H)-one]"
>10,>5,"COc1cc(OC)c(F)c(N2Cc3cnc(-c4cn(C)nc4C)cc3N(c3cncnc3)C2=O)c1F [Example 61, 3-(2,6-difluoro-3,5-dimethoxyphenyl)-7-(1,3-dimethyl-1H-pyrazol-4-yl)-1-(pyrimidin-5-yl)-3,4-dihydropyrido[4,3-d]pyrimidin-2(1H)-one]"
>10,>3,"COc1cc(OC)c(F)c(N2Cc3cnc(-c4cnn(CCC5CCN(S(C)(=O)=O)CC5)c4)cc3C3(CC3)C2=O)c1F [Example 148, 2′-(2,6-difluoro-3,5-dimethoxyphenyl)-6′-(1-(2-(1-(methylsulfonyl)piperidin-4-yl)ethyl)-1H-pyrazol-4-yl)-1′H-spiro[cyclopropane-l,4′-[2,7]naphthyridin]-3′(2′H)-one]"
>5,>5,"CCN1C(=O)N(c2c(F)c(OC)cc(OC)c2F)Cc2cnc(-c3ccc(CN4CC[C@H](C#N)C4)cc3)cc21 [Example 25, (S)-1-(4-(3-(2,6-difluoro-3,5-dimethoxyphenyl)-1-ethyl-2-oxo-1,2,3,4-tetrahydropyrido[4,3-d]pyrimidin-7-yl)benzyl)pyrrolidine-3-carbonitrile]"
>5,>5,"CCn1cnc(-c2cc3c(cn2)CN(c2c(F)c(OC)cc(OC)c2F)C(=O)C32CC2)c1 [Example 53, 2′-(2,6-difluoro-3,5-dimethoxyphenyl)-6′-(1-ethyl-1H-imidazol-4-yl)-1′H-spiro[cyclopropane-1,4′-[2,7]naphthyridin]-3′(2′H)-one]"
>5,>5,"COc1cc(OC)c(F)c(N2Cc3cnc(-c4cn(C)nc4C)cc3N(Cc3ccc(C#N)nc3)C2=O)c1F [Example 74, 5-((3-(2,6-difluoro-3,5-dimethoxyphenyl)-7-(1,3-dimethyl-1H-pyrazol-4-yl)-2-oxo-3,4-dihydropyrido[4,3-d]pyrimidin-1(2H)-yl)methyl)picolinonitrile]"
>10,>5,"CCNC(=O)c1ccc(-c2cc3c(cn2)CN(c2c(F)c(OC)cc(OC)c2F)C(=O)N3CC)cn1 [Example 175, 5-(3-(2,6-difluoro-3,5-dimethoxyphenyl)-1-ethyl-2-oxo-1,2,3,4-tetrahydropyrido[4,3-d]pyrimidin-7-yl)-N-ethylpicolinamide]"
>10,>3,"COc1cc(OC)c(F)c(N2Cc3cnc(-c4cnn(C5CCN(S(C)(=O)=O)C5)c4)cc3C3(CC3)C2=O)c1F (stereo not shown) [Example 147, 2′-(2,6-difluoro-3,5-dimethoxyphenyl)-6′-(1-(1-(methylsulfonyl)pyrrolidin-3-yl)-1H-pyrazol-4-yl)-1′H-spiro[cyclopropane-1,4′-[2,7]naphthyridin]-3′(2′H)-one]"
>5,>10,"COc1cc(OC)c(F)c(N2Cc3cnc(-c4cn(C)nc4C)cc3N(Cc3cnn(C)c3)C2=O)c1F [Example 72, 3-(2,6-difluoro-3,5-dimethoxyphenyl)-7-(1,3-dimethyl-1H-pyrazol-4-yl)-1-((1-methyl-1H-pyrazol-4-yl)methyl)-3,4-dihydropyrido[4,3-d]pyrimidin-2(1H)-one]"
>5,>10,"COc1cc(OC)c(F)c(N2Cc3cnc(-c4cn(C)nc4C)cc3N(c3ccc(CC#N)cc3)C2=O)c1F [Example 97, 2-(4-(3-(2,6-difluoro-3,5-dimethoxyphenyl)-7-(1,3-dimethyl-1H-pyrazol-4-yl)-2-oxo-3,4-dihydropyrido[4,3-d]pyrimidin-1(2H)-yl)phenyl)acetonitrile]"
>3,>5,"COc1cc(OC)c(F)c(N2Cc3cnc(-c4cn(C)nc4C)cc3N(c3ncccn3)C2=O)c1F [Example 105, 3-(2,6-difluoro-3,5-dimethoxyphenyl)-7-(1,3-dimethyl-1H-pyrazol-4-yl)-1-(pyrimidin-2-yl)-3,4-dihydropyrido[4,3-d]pyrimidin-2(1H)-one]"
>1,>10,"COc1cc(OC)c(F)c(N2Cc3cnc(-c4cn(C)nc4C)cc3N(CC3CCOCC3)C2=O)c1F [Example 37, 3-(2,6-difluoro-3,5-dimethoxyphenyl)-7-(1,3-dimethyl-1H-pyrazol-4-yl)-1-((tetrahydro-2H-pyran-4-yl)methyl)-3,4-dihydropyrido[4,3-d]pyrimidin-2(1H)-one]"
>5,>10,"COc1cc(OC)c(F)c(N2Cc3cnc(-c4cn(C)nc4C)cc3N(Cc3cc(C)no3)C2=O)c1F [Example 35, 3-(2,6-difluoro-3,5-dimethoxyphenyl)-7-(1,3-dimethyl-1H-pyrazol-4-yl)-1-((3-methylisoxazol-5-yl)methyl)-3,4-dihydropyrido[4,3-d]pyrimidin-2(1H)-one]"
>10,>10,"COc1cc(OC)c(F)c(N2Cc3cnc(-c4cn(C)nc4C)cc3N(c3ccc(F)cc3)C2=O)c1F [Example 40, 3-(2,6-difluoro-3,5-dimethoxyphenyl)-7-(1,3-dimethyl-1H-pyrazol-4-yl)-1-(4-fluorophenyl)-3,4-dihydropyrido[4,3-d]pyrimidin-2(1H)-one]"
>5,>5,"COc1cc(OC)c(F)c(N2Cc3cnc(-c4cn(C)nc4C)cc3N(c3cccc(F)c3)C2=O)c1F [Example 99, 3-(2,6-difluoro-3,5-dimethoxyphenyl)-7-(1,3-dimethyl-1H-pyrazol-4-yl)-1-(3-fluorophenyl)-3,4-dihydropyrido[4,3-d]pyrimidin-2(1H)-one]"
>10,>10,"COc1cc(OC)c(F)c(N2Cc3cnc(-c4ccc(C5(C#N)CCC5)nc4)cc3N(Cc3nnc(C)o3)C2=O)c1F [Example 187, 1-(5-{3-(2,6-difluoro-3,5-dimethoxyphenyl)-1-[(5-methyl-1,3,4-oxadiazol-2-yl)methyl]-2-oxo-1,2,3,4-tetrahydropyrido[4,3-d]pyrimidin-7-yl}pyridin-2-yl)cyclobutanecarbonitrile]"
>5,>5,"CCN1C(=O)N(c2c(F)c(OC)cc(OC)c2F)Cc2cnc(-c3ccc(CC#N)cc3)cc21 [Example 180, 2-(4-(3-(2,6-difluoro-3,5-dimethoxyphenyl)-1-ethyl-2-oxo-1,2,3,4-tetrahydropyrido[4,3-d]pyrimidin-7-yl)phenyl)acetonitrile]"
>5,>3,"COc1cc(OC)c(F)c(N2Cc3cnc(-c4cnn(CCN5CCOCC5)c4)cc3C3(CC3)C2=O)c1F [Example 157, 2′-(2,6-difluoro-3,5-dimethoxyphenyl)-6′-(1-(2-morpholinoethyl)-1H-pyrazol-4-yl)-1′H-spiro[cyclopropane-1,4′-[2,7]naphthyridin]-3′(2′H)-one]"
>5,>5,"COc1cc(OC)c(F)c(N2Cc3cnc(-c4cn(C)nc4C)cc3N(Cc3ccnc(C)c3)C2=O)c1F [Example 68, 3-(2,6-difluoro-3,5-dimethoxyphenyl)-7-(1,3-dimethyl-1H-pyrazol-4-yl)-1-((2-methylpyridin-4-yl)methyl)-3,4-dihydropyrido[4,3-d]pyrimidin-2(1H)-one]"
>3,>5,"CCN1C(=O)N(c2c(F)c(OC)cc(OC)c2F)Cc2cnc(-c3cnn(C)c3)cc21 [Example 169, 3-(2,6-difluoro-3,5-dimethoxyphenyl)-1-ethyl-7-(1-methyl-1H-pyrazol-4-yl)-3,4-dihydropyrido[4,3-d]pyrimidin-2(1H)-one]"

SMILES,FGFR1/FGFR3,FGFR4/FGFR3
"COc1cc(OC)c(F)c(N2Cc3cnc(-c4cn(C5CCN(CC#N)C5)nc4C)cc3C3(CC3)C2=O)c1F (stereo not shown) [Example 154, 2-(3-(4-(2′-(2,6-difluoro-3,5-dimethoxyphenyl)-3′-oxo-2′,3′-dihydro-1′H-spiro[cyclopropane-1,4′-[2,7]naphthyridine]-6′-yl)-3-methyl-1H-pyrazol-1-yl)pyrrolidin-1-yl)acetonitrile]",>5,>3
